System: methicillin sensitive S. aureus (strain MN8)
Experiment: Murine lethal septicemia model in immuno-competent mice
Type: in vivo
Conditions: Vancomycin 30 mg/kg
Procedure: Differences in viable bacterial counts between control and drug-treated groups were analyzed by 1-way ANOVA followed by Dunnett's adjustment for multiplicity. For lethal septicemia, differences in survival between control and drug-treated groups were performed using a Log Rank test followed by a Bonferroni-Holm's adjustment for multiplicity

With CN[C@H](CC(C)C)C(=O)N[C@H]1C(=O)N[C@@H](CC(N)=O)C(=O)N[C@H]2C(=O)N[C@H]3C(=O)N[C@H](C(=O)N[C@H](C(=O)O)c4cc(O)cc(O)c4-c4cc3ccc4O)[C@H](O)c3ccc(c(Cl)c3)Oc3cc2cc(c3O[C@@H]2O[C@H](CO)[C@@H](O)[C@H](O)[C@H]2O[C@H]2C[C@](C)(N)[C@H](O)[C@H](C)O2)Oc2ccc(cc2Cl)[C@H]1O [Vancomycin] as the molecule, how does the “% Survival (96 h post-infection)” value read?
The value was 100%.

Source: patent US20150210755A1, “ANTI-POLY-N-ACETYL GLUCOSAMINE (PNAG) MONOCLONAL ANTIBODY AND USES THEREOF FOR THE PREVENTION OR TREATMENT OF PNAG EXPRESSING BACTERIAL INFECTION” (SANOFI, priority 2012, published 2015)
